Like-named read-outs stand apart in the source and are kept apart here.

The target of test [1] is T1, malate dehydrogenase (MDH) (Sus scrofa, UniProt P00346).
T1 construct: used to determinate mitochondrial enzymes activities (ETC complexes, CS, malate dehydrogenase, and MAO); from tissue; host or cells: pig brain cortex mitochondria (frozen, ultrasonicated)
T1 sequence (P00346 25-338): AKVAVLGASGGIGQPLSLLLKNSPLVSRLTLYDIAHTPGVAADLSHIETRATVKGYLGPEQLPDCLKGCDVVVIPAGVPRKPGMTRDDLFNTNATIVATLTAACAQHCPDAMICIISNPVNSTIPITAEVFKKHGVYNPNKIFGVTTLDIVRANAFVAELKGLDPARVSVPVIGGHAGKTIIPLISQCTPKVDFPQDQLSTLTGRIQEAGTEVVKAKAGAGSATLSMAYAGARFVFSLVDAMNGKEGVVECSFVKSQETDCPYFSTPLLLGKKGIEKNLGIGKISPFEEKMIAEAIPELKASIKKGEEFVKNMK
The test can be described thus: Activity of malate dehydrogenase in pig brain mitochondria. The class given is biochemical. Conditions: mean ± SD, N = 3. The method, then: Ultrasonicated mitochondria were incubated with the tested drugs for 30 min at 30 °C, with a corresponding drug-free control for every measurement. The activities of mitochondrial enzymes were determined as the absorbance measured with a GENESYS 180 UV-Vis spectrophotometer (Thermo Fisher Scientific, Waltham, MA, USA). The conversion of oxaloacetate to malate was used to measure malate dehydrogenase (MDH) activity. The reaction was started by adding oxaloacetate and nicotinamide adenine dinucleotide (NADH) (measured at 340 nm for 3 min). […] […] An ATP standard curve was constructed.

Test [2] relates to complex II-linked respiration in isolated mitochondria. The test can be described thus: Complex II-linked respiration, high-resolution respirometry in isolated mitochondria. Format: biochemical, pig. On the procedure: (§1) The mitochondrial fraction was isolated and purified from the pig brain cortex. For high-resolution respirometry and ATP assays, freshly prepared mitochondria were kept on ice. Part of the mitochondria was frozen, stored at −70 °C, and used to determinate mitochondrial enzymes activities (ETC complexes, CS, malate dehydrogenase, and MAO).
The high-resolution Oxygraph-2k (Oroboros Instruments Corp, Innsbruck, Austria) was used to measure mitochondrial oxygen consumption rate. […] The final protein concentration was 0.05–0.14 mg/mL.
(§2) Respiration rate (oxygen flux) was quantified as the number of pmol of oxygen consumed per second per mg of a protein.
(§3) Four-parametric logistic regression was used to analyze inhibition of respiratory rate and MAO activity to determine half-maximal inhibitory concentration (IC50), residual activity, and Hill slope. Prism software from GraphPad (San Diego, CA, USA) was used for this analysis.

Test [3] has as its target T2, citrate synthase (CS) (Sus scrofa, UniProt P00889).
T2 construct: used to determinate mitochondrial enzymes activities (ETC complexes, CS, malate dehydrogenase, and MAO); from tissue; host or cells: pig brain cortex mitochondria (frozen, ultrasonicated)
T2 sequence (P00889 28-464): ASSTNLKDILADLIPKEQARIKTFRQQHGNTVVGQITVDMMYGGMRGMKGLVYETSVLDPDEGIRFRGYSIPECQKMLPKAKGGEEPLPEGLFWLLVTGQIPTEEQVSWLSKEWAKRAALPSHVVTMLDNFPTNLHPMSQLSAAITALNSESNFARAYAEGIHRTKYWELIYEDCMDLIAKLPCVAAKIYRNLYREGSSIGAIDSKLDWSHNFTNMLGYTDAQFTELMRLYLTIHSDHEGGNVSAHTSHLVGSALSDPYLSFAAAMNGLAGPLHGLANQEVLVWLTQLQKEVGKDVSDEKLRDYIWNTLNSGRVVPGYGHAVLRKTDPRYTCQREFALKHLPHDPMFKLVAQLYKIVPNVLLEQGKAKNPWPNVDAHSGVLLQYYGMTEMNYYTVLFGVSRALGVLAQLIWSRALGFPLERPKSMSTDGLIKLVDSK
The test can be described thus: Activity of citrate synthase in pig brain mitochondria. The class given is biochemical. The settings on record: mean ± SD, N = 3. The method, then: Ultrasonicated mitochondria were incubated with the tested drugs for 30 min at 30 °C, with a corresponding drug-free control for every measurement. The activities of mitochondrial enzymes were determined as the absorbance measured with a GENESYS 180 UV-Vis spectrophotometer (Thermo Fisher Scientific, Waltham, MA, USA). […] […] […] An ATP standard curve was constructed.

For test [4], the target named is T3, MAO-B (Sus scrofa, UniProt Q6PLK3).
T3 construct: from tissue; host or cells: pig brain cortex mitochondria
T3 sequence (Q6PLK3 1-520): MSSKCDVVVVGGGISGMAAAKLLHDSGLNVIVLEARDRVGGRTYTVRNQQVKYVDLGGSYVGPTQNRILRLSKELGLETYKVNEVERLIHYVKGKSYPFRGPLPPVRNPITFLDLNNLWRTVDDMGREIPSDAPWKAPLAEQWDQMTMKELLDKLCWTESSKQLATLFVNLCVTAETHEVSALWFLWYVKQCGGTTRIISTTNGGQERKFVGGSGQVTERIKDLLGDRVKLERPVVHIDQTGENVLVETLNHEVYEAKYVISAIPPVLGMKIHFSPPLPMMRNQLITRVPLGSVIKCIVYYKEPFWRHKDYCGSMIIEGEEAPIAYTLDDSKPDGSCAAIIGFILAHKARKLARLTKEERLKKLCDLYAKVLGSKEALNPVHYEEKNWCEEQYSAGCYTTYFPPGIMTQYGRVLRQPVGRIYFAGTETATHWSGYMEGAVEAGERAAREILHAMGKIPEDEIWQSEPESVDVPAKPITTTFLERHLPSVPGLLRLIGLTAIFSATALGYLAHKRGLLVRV
The test can be described thus: MAO-B activity, radiolabeled [14C]PEA substrate, pig brain mitochondria. The class given is biochemical. Conditions: for Hill Slope, MAO-B / IC50 / Residual Activity, MAO-B: mean ± SEM, four measurements. On the procedure: (§4) KH buffer was used to preincubate mitochondria (final concentration of 800 µg/mL) with the tested drugs (concentration range of 0.1–300 µmol/L). MAO enzymatic activity was measured using radiolabeled substrates ([^3H]serotonin for MAO-A and [^14C]PEA for MAO-B). The reaction was terminated with hydrochloric acid, the organic phase was separated, and the radioactivity was determined by liquid scintillation counting (LS 6000IC, Beckman Instruments, Inc., Fullerton, CA, USA).
as §3

Test [5] concerns the target T4, MAO-A (Sus scrofa, UniProt Q6Q2J0).
T4 construct: from tissue; host or cells: pig brain cortex mitochondria
T4 sequence (Q6Q2J0 1-527): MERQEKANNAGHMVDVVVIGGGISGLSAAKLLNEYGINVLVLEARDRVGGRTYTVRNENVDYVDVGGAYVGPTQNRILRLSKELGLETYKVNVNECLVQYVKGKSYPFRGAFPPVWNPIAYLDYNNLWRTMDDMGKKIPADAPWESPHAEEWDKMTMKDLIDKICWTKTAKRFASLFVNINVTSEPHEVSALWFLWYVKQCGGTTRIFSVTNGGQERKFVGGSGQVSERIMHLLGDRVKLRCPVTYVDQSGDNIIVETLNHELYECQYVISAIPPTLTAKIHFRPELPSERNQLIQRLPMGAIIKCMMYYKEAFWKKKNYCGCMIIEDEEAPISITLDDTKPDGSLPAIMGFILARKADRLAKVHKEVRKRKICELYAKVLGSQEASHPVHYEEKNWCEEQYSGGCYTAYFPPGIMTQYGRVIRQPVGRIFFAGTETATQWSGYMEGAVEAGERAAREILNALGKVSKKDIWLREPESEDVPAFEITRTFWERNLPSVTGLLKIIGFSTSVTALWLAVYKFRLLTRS
The test can be described thus: MAO-A activity, radiolabeled [3H]serotonin substrate, pig brain mitochondria. The class given is biochemical. The method, then:
as §4, §3

The test system of test [6] is complex I-linked respiration in isolated mitochondria. The test can be described thus: Complex I-linked respiration, high-resolution respirometry in isolated mitochondria. The class given is biochemical, pig. The settings on record: for IC50: four-parameter logistic; for IC50 / Residual Activity, complex I-linked respiration: mean ± SEM, four measurements. The method, then: as §1
The high-resolution Oxygraph-2k (Oroboros Instruments Corp, Innsbruck, Austria) was used to measure mitochondrial oxygen consumption rate.
as §2, §3

Take `CC(NC(C)(C)C)C(=O)c1cccc(Cl)c1` (stereo not shown) [bupropion]: the “MDH (% of control)” value in test [1] (10 μM) is listed as 99.2 ± 2.90 % of control; in test [1] (100 μM), 99.6 ± 2.72 % of control. Further, the “Inhibition (partial/full), complex II-linked respiration” value in test [2] is recorded as “partial”; in test [2] (listed as BUP), “weak partial inhibitor”. Further, the IC50 – broadly, the concentration that gives 50% inhibition – in test [2] (four-parameter logistic, mean ± SEM, four measurements) is 10.6 ± 4.49 µM; in test [4], 31.5 ± 3.32 µM; in test [5] (mean ± SEM, four measurements), 20.1 ± 5.68 µM. In addition, the “Residual Activity, complex II-linked respiration” value in test [2] (mean ± SEM, four measurements) was 0.690 ± 0.045 rel.u. Further, the “CS (% of control)” value in test [3] (10 μM) is 105.6 ± 1.29 % of control; in test [3] (100 μM), 99.5 ± 0.93 % of control. For the same compound, the figures for the “Inhibition (partial/full), MAO-B” value in test [4] and in test [4] (listed as BUP) were “partial” and “partial MAO-B inhibitors”, respectively. Moreover, the “Hill Slope, MAO-B” value in test [4] was 1.68 ± 0.20. The “Residual Activity, MAO-B” value in test [4] is listed as 0.410 ± 0.018 rel.u. Also, the “Inhibition (partial/full), MAO-A” value in test [5] is recorded as “partial”; in test [5] (listed as BUP), “partial inhibitors”. Moreover, the “Residual Activity, MAO-A” value in test [5] (mean ± SEM, four measurements) is recorded as 0.235 ± 0.050 rel.u.

Take `CN(C)CCC[C@@]1(c2ccc(F)cc2)OCc2cc(C#N)ccc21` [escitalopram]: the “Inhibition (partial/full), complex I-linked respiration” value in test [6] is “partial”. Further, the concentration for half-maximal inhibition (IC50) in test [6] is 0.14 ± 0.08 µM; in test [4], 15.2 ± 2.23 µM; in test [5] (mean ± SEM, four measurements), 8.78 ± 2.27 µM. Further, the “Residual Activity, complex I-linked respiration” value in test [6] worked out at 0.774 ± 0.015 rel.u. Besides, the entries for the “Inhibition (partial/full), MAO-B” value in test [4] and in test [4] (listed as ESC) were “full” and “full inhibitors”, respectively. Further, the “Inhibition (partial/full), MAO-A” value in test [5] is on record as “full”; in test [5] (listed as ESC) it was “full inhibitors”.

Turning to `Fc1ccc([C@@H]2CCNC[C@H]2COc2ccc3c(c2)OCO3)cc1` [paroxetine], in test [1] (10 μM), the “MDH (% of control)” value is 100.1 ± 2.22 % of control. For the same compound, the “MDH (% of control)” value in test [1] (100 μM) is listed as 97.9 ± 1.71 % of control. Further, the “CS (% of control)” value in test [3] (10 μM) was 105.8 ± 1.69 % of control. Further, the “CS (% of control)” value in test [3] (100 μM) is 98.4 ± 0.85 % of control. Besides, in test [6], the “Inhibition (partial/full), complex I-linked respiration” value was “partial”; inhibition was half-maximal at 26.7 ± 6.73 µM (IC50); the “Residual Activity, complex I-linked respiration” value came out at 0.672 ± 0.029 rel.u. For the same compound, in test [4], the “Inhibition (partial/full), MAO-B” value was “full”; the “Hill Slope, MAO-B” value is given as 1.06 ± 0.10; the IC50 was found to be 2.19 ± 0.21 µM; the “Residual Activity, MAO-B” value is recorded as 0.015 ± 0.021 rel.u. In test [4] (listed as PAR), the “Inhibition (partial/full), MAO-B” value was “full inhibitors”. For the same compound, the “Inhibition (partial/full), MAO-A” value in test [5] is “full”. In addition, the “Inhibition (partial/full), MAO-A” value in test [5] (listed as PAR) is on record as “full inhibitors”. Also, in test [5] (mean ± SEM, four measurements), the “Hill Slope, MAO-A” value came out at 1.65 ± 0.22; the 50% inhibitory concentration (IC50) was determined as 0.47 ± 0.06 µM; the “Residual Activity, MAO-A” value is reported as 0.007 ± 0.017 rel.u.

The record behind these values is article PMC10294837 (Antioxidants, 2023).
